This experiment has as its target T1, K2P4.1(TRAAK) M134F (Mus musculus, UniProt O88454, M134F).
T1 construct: expressed in transfected cells; host or cells: Xenopus laevis oocytes, mRNA injected
As to the kind of experiment: TEVC of K2P4.1(TRAAK) mutant M134F. It is filed as cell-based. To be noted: Xenopus oocytes, saturation not reached, fit with upper boundary of 15 (I/I0). The text has this: To identify K2P2.1(TREK-1) M2 residues that might participate in the BL-1249 response, we mapped the residues that differ between K2P2.1(TREK-1) and K2P4.1(TRAAK) in the context of the K2P2.1(TREK-1) structure[6] (Figure 5B,C). Two K2P2.1(TREK-1) M2 residues stood out as candidates that could explain the reduction in BL-1249 response when the entire M2 helix was replaced with M2 from K2P4.1(TRAAK). One is at the M2/M4 interface and occurs between Phe172 and Arg297 via a π–cation interaction that would be lost when Phe172 is replaced with the equivalent K2P4.1(TRAAK) residue Met134 (Figure 5C, right inset). […] To assess the importance of these interactions in the context of BL-1249 response, we made the K2P2.1(TREK-1) mutants F172M and F185L and measured their responses to BL-1249 (Figure 5D). […]
Xenopus laevis oocytes were harvested in accordance with UCSF IACUC protocol AN129690 and digested in calcium-free ND-96 (96 mM NaCl, 2 mM KCl, 3.8 mM MgCl2) immediately following harvest, as previously described.[6],[10] […] Defolliculated stage V–VI oocytes were injected with 0.2–6.0 ng of mRNA in 50 nL, and currents were recorded 24–48 h after injection. mRNA was synthesized from plasmid DNA using mMessage mMachine Kit (T7 promoter, Ambion, Life Technologies) and purified using RNEasy Kit (Qiagen). […]

T1 sequence (O88454 whole entry M134F): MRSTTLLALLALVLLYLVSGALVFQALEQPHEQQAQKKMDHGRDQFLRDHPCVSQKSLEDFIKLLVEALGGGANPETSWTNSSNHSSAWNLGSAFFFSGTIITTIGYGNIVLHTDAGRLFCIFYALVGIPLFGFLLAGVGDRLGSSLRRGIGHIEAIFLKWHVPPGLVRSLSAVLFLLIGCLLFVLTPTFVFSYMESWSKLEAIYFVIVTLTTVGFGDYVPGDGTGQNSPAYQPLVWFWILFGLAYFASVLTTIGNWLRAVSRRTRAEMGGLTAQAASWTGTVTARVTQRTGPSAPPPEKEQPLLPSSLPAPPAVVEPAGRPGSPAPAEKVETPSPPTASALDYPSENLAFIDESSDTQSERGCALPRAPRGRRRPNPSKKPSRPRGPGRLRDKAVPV

The term EC50 denotes the concentration that produces a half-maximal response. `c1ccc(-c2nnn[nH]2)c(Nc2cccc3c2CCCC3)c1` [BL-1249, (5,6,7,8-tetrahydro-naphthalen-1-yl)-[2-(1H-tetrazol-5-yl)-phenyl]-amine] gave an EC50 of 58 ± 34 µM.

Values taken from paper PMC6302903, “Protein and Chemical Determinants of BL-1249 Action and Selectivity for K2P Channels” (ACS Chemical Neuroscience, 2018).
